Experimental data: patent US10696985B1, “Reversibly crosslinked endosomolytic polymer vesicles for cytosolic drug delivery” (Vanderbilt University, priority 2016, dated 2020)

Experiments:
[1] = Encapsulation efficiency of cargo in PEG-EBP polymer vesicles; settings: cGAMP within PEG-EBP vesicles; high performance liquid chromatography
Experimental: Encapsulation efficiency is defined as the percentage of cargo associated with the vesicle after cargo loading and separation of vesicles from unencapsulated cargo. N=number of experiments performed for a specific cargo type.
For formulation of polymeric vesicles, 5 mg of the polymer is mixed with 4 μL of ethanol. Upon equilibration, 4 μL of cGAMP solution (0-50 mg/mL in water) is added to the polymer/ethanol gel. […] Upon formation of vesicles, the colloid is diluted into water and sonicated further to generate the PEG-EBP encapsulated cGAMP colloid.
Solvent composition and stepwise addition amounts were chosen to maximize the vesicle yield of the formulation process while maximizing encapsulant concentration during vesicle self-assembly. […] Particles were crosslinked post assembly via addition of 0.5 molar equivalents of DTT relative to pyidyl disulfide moieties comprising the PEG-EBP colloid. Nanoparticles were readily separated from free cGAMP and crosslinking byproducts via centrifugal ultrafiltration using a 10 kDa cutoff.
Pyridyl disulfide (PDS) moieties were exploited for post-assembly in situ crosslinking of the vesicle membrane via partial reduction of disulfide bonds with DTT.

TLR-2 = target: T1, TLR-2 (Mus musculus, UniProt Q9EPQ1+Q9QUN7); assay: RAW264.7 NF-κB reporter cell assay; format: cell-based; settings: incorporated into the PEG-EBP vesicle membrane, versus free Pam3CSK4
T1 construct: endogenous in cells; host or cells: RAW264.7 NF-kB reporter cells
T1 sequence (Q9QUN7 25-784): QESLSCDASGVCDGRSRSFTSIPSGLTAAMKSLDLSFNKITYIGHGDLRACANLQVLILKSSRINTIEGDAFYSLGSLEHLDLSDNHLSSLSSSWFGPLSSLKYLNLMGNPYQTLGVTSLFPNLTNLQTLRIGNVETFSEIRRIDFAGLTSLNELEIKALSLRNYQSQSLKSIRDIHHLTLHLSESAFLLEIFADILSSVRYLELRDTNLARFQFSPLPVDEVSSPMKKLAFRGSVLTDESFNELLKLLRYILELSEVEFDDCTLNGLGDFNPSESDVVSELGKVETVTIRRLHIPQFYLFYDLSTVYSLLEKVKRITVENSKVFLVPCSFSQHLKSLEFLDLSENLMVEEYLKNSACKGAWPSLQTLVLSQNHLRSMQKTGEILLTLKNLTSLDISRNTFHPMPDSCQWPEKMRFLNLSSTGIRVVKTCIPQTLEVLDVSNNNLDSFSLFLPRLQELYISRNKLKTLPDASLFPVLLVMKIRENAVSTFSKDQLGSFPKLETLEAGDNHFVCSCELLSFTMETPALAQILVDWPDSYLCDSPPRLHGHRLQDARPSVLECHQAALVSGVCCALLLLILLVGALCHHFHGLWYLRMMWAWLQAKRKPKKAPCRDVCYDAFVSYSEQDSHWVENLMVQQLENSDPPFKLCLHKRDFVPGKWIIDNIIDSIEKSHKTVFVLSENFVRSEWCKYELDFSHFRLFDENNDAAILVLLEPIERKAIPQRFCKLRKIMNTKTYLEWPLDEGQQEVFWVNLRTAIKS
T1 sequence (Q9EPQ1 25-795 limits assumed): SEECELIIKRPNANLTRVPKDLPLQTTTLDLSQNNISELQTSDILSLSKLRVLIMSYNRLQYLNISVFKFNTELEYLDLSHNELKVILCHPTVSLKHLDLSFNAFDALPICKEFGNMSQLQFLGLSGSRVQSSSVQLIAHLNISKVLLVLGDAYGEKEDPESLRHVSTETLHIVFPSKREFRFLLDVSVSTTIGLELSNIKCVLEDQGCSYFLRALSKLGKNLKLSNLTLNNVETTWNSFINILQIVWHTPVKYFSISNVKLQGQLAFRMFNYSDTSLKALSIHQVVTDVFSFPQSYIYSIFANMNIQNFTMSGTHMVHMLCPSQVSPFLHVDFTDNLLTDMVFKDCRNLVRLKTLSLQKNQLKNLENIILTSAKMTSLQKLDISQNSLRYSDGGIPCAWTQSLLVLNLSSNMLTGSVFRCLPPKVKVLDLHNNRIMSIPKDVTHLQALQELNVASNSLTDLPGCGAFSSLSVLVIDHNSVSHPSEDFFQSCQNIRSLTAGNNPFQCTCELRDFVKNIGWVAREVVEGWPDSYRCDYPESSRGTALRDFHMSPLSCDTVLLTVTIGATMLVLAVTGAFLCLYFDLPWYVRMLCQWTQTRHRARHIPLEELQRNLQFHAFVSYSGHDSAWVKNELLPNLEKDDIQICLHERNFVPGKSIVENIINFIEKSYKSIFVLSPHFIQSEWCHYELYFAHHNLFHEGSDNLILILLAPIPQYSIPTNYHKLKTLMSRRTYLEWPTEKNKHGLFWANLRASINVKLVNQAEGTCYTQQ
Text: PEG-EBP polymer vesicles were also shown to serve as a carrier for agonists of pattern recognition receptors (PRRs) that reside on the cell surface. […] The reduced activity of Pam3CSK4 incorporated into vesicles is thought to be primarily related to the ˜50% of Pam3CSK4 molecules that are incorporated into the inner leaflet of the vesicle membrane, and therefore are not accessible for binding to cell surface TLR-2 molecules.

immunostimulatory activity (TLR-2) | Molecule | encapsulation efficiency [1] [%]
 | Nc1nc2c(ncn2[C@@H]2O[C@@H]3COP(=O)(O)O[C@H]4[C@@H](O)[C@H](n5cnc6c(N)ncnc65)O[C@@H]4COP(=O)(O)O[C@@H]2[C@@H]3O)c(=O)[nH]1 [cGAMP, cyclic guanosine monophosphate-adenosine monophosphate] | 38±3
partially retained | Pam3CSK4 | 
